Test results from patent publication US12171755B2, “PAPD5 inhibitors and methods of use thereof” (Children's Medical Center Corporation, priority 2017, dated 2024).

Target: T1, PAPD5 (Homo sapiens, UniProt Q8NDF8)
T1 construct: made in house
Assay: High-throughput luminescence (KinaseGlo) RNA polyadenylation assay, ATP utilization by recombinant PAPD5
Assay type: biochemical
Details: Table 4 (entries of Table 5), ratio of luminescence with inhibitor to DMSO; for Fold-change determined at compound concentration 33 μM: 33 μM compound; for Fold-change determined at compound concentration 100 μM: 100 μM compound, higher = higher inhibition
Summary of the method: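 Recombinant PAPD5 polyadenylates an oligonucleotide substrate using ATP, and remaining ATP is read by KinaseGlo luciferase luminescence. Compound was incubated for 2 h at room temperature, then with luciferase for 10 min.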

T1 sequence (Q8NDF8 68-698 isoform Q8NDF8-5): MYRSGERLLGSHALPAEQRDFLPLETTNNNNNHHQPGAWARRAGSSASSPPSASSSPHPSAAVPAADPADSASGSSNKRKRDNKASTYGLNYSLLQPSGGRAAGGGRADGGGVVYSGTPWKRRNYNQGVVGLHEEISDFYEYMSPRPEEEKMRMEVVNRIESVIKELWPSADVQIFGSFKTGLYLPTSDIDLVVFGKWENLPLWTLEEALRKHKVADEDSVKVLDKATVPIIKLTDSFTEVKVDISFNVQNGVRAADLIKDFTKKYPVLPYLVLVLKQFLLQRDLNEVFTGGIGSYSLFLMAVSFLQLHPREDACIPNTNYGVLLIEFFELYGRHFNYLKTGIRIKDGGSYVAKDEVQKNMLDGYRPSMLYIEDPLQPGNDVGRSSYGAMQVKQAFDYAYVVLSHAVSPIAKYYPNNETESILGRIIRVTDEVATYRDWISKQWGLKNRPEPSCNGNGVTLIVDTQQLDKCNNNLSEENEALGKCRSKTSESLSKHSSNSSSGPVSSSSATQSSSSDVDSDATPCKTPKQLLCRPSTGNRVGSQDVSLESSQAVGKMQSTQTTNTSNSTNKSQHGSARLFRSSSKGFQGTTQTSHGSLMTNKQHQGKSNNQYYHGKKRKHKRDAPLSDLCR

Row | SMILES | Fold-change determined at compound concentration 33 μM | Fold-change determined at compound concentration 100 μM | Fold-change determined at compound concentration 10 μM (10 μM compound)
1 | Cc1c(C(=O)N2CCCC2)oc2c1-c1nn(CC(=O)NCCCOC(C)C)cc1CC2 [Entry 168, 2-[8-methyl-7-(pyrrolidine-1-carbonyl)-4,5-dihydrofuro[2,3-g]indazol-2-yl]-N-(3-propan-2-yloxypropyl)acetamide] | 1.452 | 1.678 | –
2 | Cc1nn(CC(=O)O)c(=O)c2cc3cc(F)ccc3n12 [Entry 214, 2-(8-fluoro-4-methyl-1-oxo-[1,2,4]triazino[4,5-a]indol-2-yl)acetic acid] | 1.118 | 1.213 | –
3 | Cc1ccc(CNC(=O)Nc2cn(CC(C)C)c(=O)c3ccccc23)cc1 [Entry 57, 1-[(4-methylphenyl)methyl]-3-[2-(2-methylpropyl)-1-oxoisoquinolin-4-yl]urea] | 1.142 | 1.518 | –
4 | COc1cc(C2CC(=O)Nc3c2sc(C(=O)O)c3-c2cccc(F)c2)ccc1OCC(N)=O (centres unmarked) [Entry 197, 7-[4-(2-amino-2-oxoethoxy)-3-methoxyphenyl]-3-(3-fluorophenyl)-5-oxo-4,5,6,7-tetrahydrothieno[3,2-b]pyridine-2-carboxylic acid] | 1.142 | 1.412 | –
5 | CCOC(=O)c1ccc(NC(=O)CCc2c(C)nc3nc[nH]n3c2=O)cc1 [Entry 149, ethyl 4-[3-(5-methyl-7-oxo-1H-[1,2,4]triazolo[1,5-a]pyrimidin-6-yl)propanoylamino]benzoate] | 1.183 | 1.309 | –
6 | CC(Oc1ccc2c3c(c(=O)oc2c1)CCC3)C(=O)O (centres unmarked) [Entry 131, 2-[(4-Oxo-1,2,3,4-tetrahydrocyclopenta[c]chromen-7-yl)oxy]propanoic acid] | 1.195 | 1.653 | –
7 | O=C1c2cnccc2CN1c1cc(F)ccc1F [Entry 212, 2-(2,5-difluorophenyl)-1H-pyrrolo[3,4-c]pyridin-3-one] | 1.077 | 1.799 | –
8 | CCc1nnc(NC(=O)c2cc(=O)c3cc(C)c(C)cc3o2)s1 [Entry 123, N-(5-ethyl-1,3,4-thiadiazol-2-yl)-6,7-dimethyl-4-oxo-4H-chromene-2-carboxamide] | 1.528 | 2.189 | 1.211
9 | CCCCN(CC)C(=O)CCCn1c(=O)c2cccn2c2ccccc21 [Entry 66, N-butyl-N-ethyl-4-(4-oxopyrrolo[1,2-a]quinoxalin-5-yl)butanamide] | 1.083 | 1.229 | –
10 | COc1ccc(NS(=O)(=O)c2ccc3c(c2)[C@H]2C=CC[C@H]2[C@@H](c2ccc(C(=O)O)cc2)N3)cc1 [Entry 100, 4-[(3aR,4S,9bS)-8-[(4-methoxyphenyl)sulfamoyl]-3a,4,5,9b-tetrahydro-3H-cyclopenta[c]quinolin-4-yl]benzoic acid] | 1.315 | 2.297 | –
11 | O=S(=O)(Nc1ccc2nncn2n1)c1ccc(Br)cc1 [Entry 49, 4-bromo-N-([1,2,4]triazolo[4,3-b]pyridazin-6-yl)benzenesulfonamide] | 1.105 | 1.318 | –
